≈ marks a conversion by molar mass, not a printed value. Residues, ends and D or L forms follow the SMILES beside them. No end group written: not given here.
Tests used:
[1] = tested on: Escherichia coli, ATCC 25922; format: cell-based; settings: non-clinical isolate; 37° C.; 3×10^6 cells per ml
Method: (§1) The antibacterial activities of the different peptides were determined by continuous monitoring of bacterial growth with a Bioscreen C microbiology reader (Labsystems Oy, Helsinki, Finland). The test was performed in 100-well flat-bottomed honeycomb plates, in which 50 μl of test fractions were incubated with 50 μl of a suspension of an actively growing culture of bacteria diluted in Mueller Hinton medium to a starting concentration of 3×10^4 cells per ml. The Gram-negative bacteria, Listonella (Vibrio) anguillarum, serotype O2 (FT 1801, a fish pathogenic strain), Pseudomonas aeruginosa and E. coli (ATCC 25922), and the Gram-positive bacteria, C. glutamicum (ATCC 13032) and S. aureus (ATCC 9144), were chosen as test bacteria. The growth chamber was maintained at either 20 or 37° C. during the incubation period. The absorbance was measured at 2 h intervals for 48 h by a turbidometric method with vertical light photometry and a wide band filter (420-580 nm), which is more insensitive to color change in the sample compared to single wavelength detection. Antibacterial activity was determined when the optical density (OD) of the growth control (bacteria plus water) reached an absorbance of 0.3-0.4. Fractions were regarded as active when the OD was less than 50% of the growth control. Polymyxin B (Sigma, St. Louis, Mo., USA), Lactoferricin B, Cecropin P1 and Hyalophora cecropia Cecropin B were used as reference.
(§2) The antimicrobial molecules were also tested against drug resistant clinical isolates, such as the commonly encountered multi-resistant human pathogen S. aureus (MRSA) K15-64 and the glycopeptide (vancomycin)-resistant Enterococccus faecium (GREF) K9-28. The non-clinical isolates Escherichia coli (ATCC 25922), Pseudomonas aeruginosa (ATCC 27853), Corynebacterium glutamicum (ATCC 13032), and Staphylococcus aureus (ATCC 9144) were also tested for comparison. Serial dilutions of synthetic peptides were made in double distilled water and tested according to the method described above. However, in these experiments the starting concentration of bacteria were 3×10^6 cells per ml and the temperature in the growth chamber was 37° C. Polymyxin B was used as positive control for the Gram-negative bacteria.

[2] = tested on: Pseudomonas aeruginosa ATCC 27853; format: cell-based; settings: non-clinical isolate; 37° C.; 3×10^6 cells per ml
Method: as §1, §2

[3] = tested on: Rhodotorula sp.; settings: 48 h
In short: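 Broth microdilution in half-strength potato dextrose broth, final 2×10^5 spores per ml, peptides in two-fold dilutions from 50 μM to 0.1 μM final. Incubated in the dark without shaking at 25° C. (37° C. for C. albicans) for 48 h; MIC is lowest concentration giving 50% inhibition of visible growth, scored microscopically.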

[4] = tested on: Fusarium sp.; assay: Antifungal MIC; format: cell-based; settings: filamentous fungi; more than 50% inhibition of visible growth, 48 h
Method: (§3) The various derivates of P17 (brominated and non-brominated) were tested for their ability to inhibit fungal growth of the yeast strains Saccaharomyces cerevisiae sp, Candida albicans (ATCC 10231) and Rodotorula sp., and the filamentous strains Botrytis cinerea 101, Penicillium rogveforti, and Fusarium sp. All strains, except C. albicans, were a gift from Prof. A. Tronsmo (The Norwegian University of Life Sciences, Ås, Norway). The fungi were cultivated on potato dextrose agar, supplemented with 2% glucose, at room temperature. Before antifungal testing, the fungi were dissolved in potato dextrose broth (Difco) at half-strength. Cell concentration was determined and adjusted after counting in a Bürker chamber. The filamentous fungi were filtered through a piece of cotton before counting. An aliquot of 50 μl of fungal spores (final concentration 2×10^5 spores per ml) were inoculated in microtiter plates (96 wells) along with 50 μl peptide solution. Peptides, dissolved in distilled water, were tested at final concentrations (two-fold dilutions) ranging from 50 μM to 0.1 μM. Cultures were grown in the dark (without shaking) and with a moist chamber at 25° C. (37° C. for C. albicans). Growth inhibition was determined microscopically after 48 h of incubation. MIC was determined as the lowest concentration of peptide resulting in 50% inhibition of visible growth.

[5] = tested on: Penicillum rogveforti; assay: Antifungal MIC; format: cell-based; settings: filamentous fungi; more than 50% inhibition of visible growth, 48 h
Method: as §3

[6] = tested on: human breast malignant carcinoma cell line MCF-7; format: cell-based; settings: human, 24 h
Method: (§4) The cytotoxic effects of the peptides on different human tumour cells were measured using the MTT colorimetric assay (Mosmann, 1983). […] Dissolved MIT is converted to an insoluble purple formazan by cleavage of the tetrazolium ring by dehydrogenase enzymes. This water insoluble formazan can be solubilized using isopropanol or other solvents and the dissolved material is measured spectrophotometrically. The absorbance was measured as a function of concentration of converted dye. The conversion of the soluble dye to the insoluble purple formazan is utilized in assays for measurement of cell proliferation. […] We used this assay to measure the degree of cell death caused by the peptides. MCF-7 was maintained in EMEM, A2058 in DMEM and […]-29 in RPMI-1640 medium supplemented with 10% heat inactivated […] and 1% L-glutamine-L-alanine in a humidified atmosphere of 5% CO2 at 37° C. The human embryonic fibroblast cell line, MRC-5 (which is normal fibroblasts), was cultured as a monolayer in MEM medium, under the same conditions as described for the tumour cell lines. Cells to be used in the assay were grown to a minimum of 75% confluency, trypsinated and split to single cell suspension, counted and centrifuged at 1500 rpm for 10 min. The cell pellet was resuspended to a concentration of 2×10^5 cells/ml (HT-29) or 1×10^5 (MRC-5, MCF7 and A2058) in DMEM without FBS and L-glutamine-L-alanine (assay-medium). All cell lines were routinely tested for mycoplasma infection using a PCR-based mycoplasma detection kit (MycoSensor PCR Assay Kit, Stratagene), following the supplier's instructions. All cell lines were mycoplasma free. The cytotoxicity was measured using the MTT method (Mosmann, 1983), with minor modifications. Different human tumour cells (1-2×10^5) were applied in 96-well culture plates in a volume of 100 μl DMEM medium and incubated at 37° C. for 24 hours. The medium was removed and the cells were treated with 100 μl of peptide solution (concentrations ranging from 0 to 200 μg/ml), diluted in a) RPMI-1640 medium supplemented with 5% heat inactivated FBS, or b) RPMI-1640 medium without FBS. The plates were incubated at 37° C. for 24 hours. Cells treated with Triton X-100 (1%) was used as positive control (100% killing) whereas cells plus medium only were used as negative control. […] A volume of 70 μl of the supernatant was then removed and […] (0.04 M HCl in isopropanol) added to each well. The plate was placed on a shaker for 1 hour at room temperature and read spectrophotometrically at 590 nm in a microtiter plate reader (DTX880 Multimode Detector, Beckman Coulter).

[7] = tested on: human skin malignant melanoma cell line A2058; format: cell-based; settings: human, 24 h
Method: as §4

Row | Compound | Minimal inhibitory concentration, Escherichia coli, ATCC 25922 [1] | Minimal inhibitory concentration, Pseudomonas aeruginosa ATCC 27853 [2] | Minimal inhibitory concentration (MIC), Rhodotorula sp. [3] | Minimal inhibitory concentration (MIC), Fusarium sp. [4] | Minimal inhibitory concentration (MIC), Penicillum rogveforti [5] | IC50 [6] | IC50 [7]
1 | CC[C@H](C)[C@H](NC(=O)CNC(=O)[C@H](CO)NC(=O)[C@H](CCCCN)NC(=O)[C@@H](NC(=O)[C@H](C)NC(=O)[C@H](Cc1c[nH]cn1)NC(=O)[C@H](CO)NC(=O)[C@@H](NC(=O)[C@H](CCCCN)NC(=O)[C@H](Cc1c[nH]cn1)NC(=O)[C@H](Cc1ccccc1)NC(=O)[C@@H](NC(=O)[C@H](CCCCN)NC(=O)[C@H](CCCCN)NC(=O)[C@H](Cc1ccccc1)NC(=O)C(Cc1c[nH]c2ccc(Br)cc12)NC(=O)CN)[C@@H](C)O)C(C)C)C(C)C)C(=O)N[C@@H](Cc1c[nH]cn1)C(=O)N[C@@H](C)C(=O)NCC(=O)N[C@@H](CCC(N)=O)C(=O)N[C@@H](CCCNC(=N)N)C(=O)NCC(=O)N[C@@H](CS)C(=O)N[C@@H](CO)C(=O)N[C@@H](C)C(=O)N[C@@H](CC(C)C)C(=O)NCC(=O)N[C@@H](Cc1ccccc1)C(=O)O (some centres unmarked) [P17 HC-Br] (HELM PEPTIDE1{G.[O=C(C(Cc1c[nH]c2ccc(Br)cc12)N[*:1])[*:2]].F.K.K.T.F.H.K.V.S.H.A.V.K.S.G.I.H.A.G.Q.R.G.C.S.A.L.G.F}$$$$V2.0) | 6.25 µM (≈ 20.8 µg/mL) | 6.25 µM (≈ 20.8 µg/mL) | 3.12 µM (≈ 10.4 µg/mL) | 1.56 µM (≈ 5.18 µg/mL) | 6.25 µM (≈ 20.8 µg/mL) | < 10 µM | < 10 µM
2 | GWFKKTFHKVSHAVKSGIHAGQRGCSALGF [P17 HC] | 6.25 µM | 6.25 µM | 3.12 µM | 1.56 µM | 6.25 µM | < 10 µM | < 10 µM
